Data from PubChem BioAssay (NCI).
Several values for one entry are separate records, joined by “and”; a condition that tells them apart may be missing. Equal values may be shown once.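 Five compound concentrations were applied to cells in 96-well plates for 48 hours; endpoints were derived by simple linear interpolation of the resulting dose-response curve. GI50 marks 50% less growth. Definition used: TGI = concentration required for complete inhibition of growth.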

Legend:
Experiment in all cases: NCI tumour cell line growth inhibition, 48 h
[1] = tested on: SF-268 CNS
[2] = tested on: ACHN renal
[3] = tested on: SK-MEL-5 melanoma
[4] = tested on: BT-549 breast
[5] = tested on: MDA-MB-231 breast
[6] = tested on: IGROV1 ovarian
[7] = tested on: OVCAR-5 ovarian
[8] = tested on: KM12 colon
[9] = tested on: NCI-H23 lung
[10] = tested on: NCI-H460 lung
[11] = tested on: HOP-92 NSCLC
[12] = tested on: PC-3 prostate
[13] = tested on: RPMI-8226 leukemia
[14] = tested on: NCI-H522 lung
[15] = tested on: U251 CNS
[16] = tested on: EKVX NSCLC
[17] = tested on: NCI/ADR-RES ovarian
[18] = tested on: HCT-15 colon
[19] = tested on: T-47D breast
[20] = tested on: LOX IMVI melanoma
[21] = tested on: HCC-2998 colon
[22] = tested on: HS 578T breast
[23] = tested on: COLO 205 colon
[24] = tested on: SNB-75 CNS
[25] = tested on: MOLT-4 leukemia
[26] = tested on: K-562 leukemia
[27] = tested on: SW-620 colon
[28] = tested on: NCI-H226 lung
[29] = tested on: SK-MEL-2 melanoma
[30] = tested on: SNB-19 CNS
[31] = tested on: OVCAR-4 ovarian
[32] = tested on: MALME-3M melanoma
[33] = tested on: SN12C renal
[34] = tested on: DU-145 prostate
[35] = tested on: SK-OV-3 ovarian
[36] = tested on: SF-539 CNS
[37] = tested on: A549 NSCLC
[38] = tested on: 786-0 renal
[39] = tested on: HT29 colon
[40] = tested on: UO-31 renal
[41] = tested on: CCRF-CEM leukemia
[42] = tested on: HL-60(TB) leukemia
[43] = tested on: HCT-116 colon
[44] = tested on: SR leukemia
[45] = tested on: MDA-MB-435
[46] = tested on: MCF7 breast
[47] = tested on: A498 renal
[48] = tested on: SK-MEL-28 melanoma
[49] = tested on: M14 melanoma
[50] = tested on: UACC-257 melanoma
[51] = tested on: SF-295 CNS
[52] = tested on: TK-10 renal
[53] = tested on: OVCAR-8 ovarian
[54] = tested on: RXF 393 renal
[55] = tested on: UACC-62 melanoma
[56] = tested on: OVCAR-3 ovarian
[57] = tested on: HOP-62 NSCLC
[58] = tested on: CAKI-1 renal

## COc1cc(-c2nc(NC(C)=O)sc2-c2ccnc(NCCNS(=O)(=O)c3ccccc3)n2)ccc1Cl
[1]
  GI50: 4.25 µM
  TGI: > 100 µM
[2]
  GI50: 3.1 µM
  TGI: > 100 µM
[3]
  GI50: 1.58 µM
  TGI: 4.25 µM
[4]
  GI50: 3.1 µM
  TGI: > 100 µM
[5]
  GI50: 3.81 µM
  TGI: > 100 µM
[6]
  GI50: 6.75 µM
  TGI: > 100 µM
[7]
  GI50: 9.77 µM
  TGI: > 100 µM
[8]
  GI50: 3.26 µM
  TGI: 59.3 µM
[9]
  GI50: 5 µM
  TGI: > 100 µM
[10]
  GI50: 3.08 µM
  TGI: 10.8 µM
[11]
  GI50: 2.52 µM
  TGI: 72 µM
[12]
  GI50: 2.88 µM
  TGI: > 100 µM
[13]
  GI50: 3.77 µM
  TGI: > 100 µM
[14]
  GI50: 1.99 µM
  TGI: 8.72 µM
[15]
  GI50: 5.22 µM
  TGI: > 100 µM
[16]
  GI50: 5.25 µM
  TGI: > 100 µM
[17]
  GI50: > 100 µM
  TGI: > 100 µM
[18]
  GI50: 3.78 µM
  TGI: > 100 µM
[19]
  GI50: 2.69 µM
  TGI: > 100 µM
[20]
  GI50: 4.41 µM
  TGI: > 100 µM
[21]
  GI50: 20.9 µM
  TGI: > 100 µM
[22]
  GI50: 6.61 µM
  TGI: > 100 µM
[23]
  GI50: 2.21 µM
  TGI: 6.01 µM
[24]
  GI50: 1.49 µM
  TGI: 7.19 µM
[25]
  GI50: 3.17 µM
  TGI: > 100 µM
[26]
  GI50: 3.87 µM
  TGI: > 100 µM
[27]
  GI50: 4.37 µM
  TGI: > 100 µM
[28]
  GI50: 6.45 µM
  TGI: > 100 µM
[29]
  GI50: 2.42 µM
  TGI: 6.23 µM
[30]
  GI50: 6.51 µM
  TGI: > 100 µM
[31]
  GI50: 3.58 µM
  TGI: > 100 µM
[32]
  GI50: 3.8 µM
  TGI: > 100 µM
[33]
  GI50: 5.47 µM
  TGI: > 100 µM
[34]
  GI50: 5.11 µM
  TGI: > 100 µM
[35]
  GI50: 4.77 µM
  TGI: > 100 µM
[36]
  GI50: 2.86 µM
  TGI: 8.48 µM
[37]
  GI50: 4.5 µM
  TGI: > 100 µM
[38]
  GI50: 4.31 µM
  TGI: > 100 µM
[39]
  GI50: 2.94 µM
  TGI: > 100 µM
[40]
  GI50: 4.46 µM
  TGI: > 100 µM
[41]
  GI50: 4.03 µM
  TGI: > 100 µM
[42]
  GI50: 3.14 µM
  TGI: 7.45 µM
[43]
  GI50: 3.17 µM
  TGI: 35.7 µM
[44]
  GI50: 2.3 µM
  TGI: > 100 µM
[45]
  GI50: 0.799 µM
  TGI: 3.45 µM
[46]
  GI50: 2.4 µM
  TGI: > 100 µM
[47]
  GI50: 2.96 µM
  TGI: 8.97 µM
[48]
  GI50: 3.71 µM
  TGI: > 100 µM
[49]
  GI50: 2.09 µM
  TGI: 5.42 µM
[50]
  GI50: 5.37 µM
  TGI: > 100 µM
[51]
  GI50: 2.74 µM
  TGI: 13.4 µM
[52]
  GI50: 6.33 µM
  TGI: > 100 µM
[53]
  GI50: 5.21 µM
  TGI: > 100 µM
[54]
  GI50: 2.74 µM
  TGI: 7.53 µM
[55]
  GI50: 2.61 µM
  TGI: > 100 µM
[56]
  GI50: 3.09 µM
  TGI: 32.6 µM
[57]
  GI50: 6.78 µM
  TGI: > 100 µM

## CN1CCC(CNc2ccc3ncc(-c4cccc(OC(F)(F)F)c4)n3n2)CC1
[1]
  GI50: 1.57 µM and 3.2 µM
  TGI: 3.64 µM and > 10 µM
[2]
  GI50: 2.14 µM and 3.05 µM
  TGI: 6.05 µM and > 10 µM
[3]
  GI50: 1.47 µM and 1.51 µM
  TGI: 2.82 µM and 2.85 µM
[4]
  GI50: 2.45 µM and 4.35 µM
  TGI: 10.9 µM and > 10 µM
[5]
  GI50: 1.62 µM and 1.26 µM
  TGI: 3.65 µM and 2.77 µM
[6]
  GI50: 2.91 µM and 2.27 µM
  TGI: 9.09 µM and 9.11 µM
[7]
  GI50: 2.68 µM and 2.95 µM
  TGI: 8.32 µM and > 10 µM
[8]
  GI50: 0.331 µM and 0.427 µM
  TGI: 1.78 µM and > 10 µM
[9]
  GI50: 2.47 µM and 3.96 µM
  TGI: 9.48 µM and > 10 µM
[10]
  GI50: 2.16 µM and 2.94 µM
  TGI: 5.68 µM and > 10 µM
[11]
  GI50: 1.2 µM and 0.383 µM
  TGI: 3.81 µM and 3.66 µM
[12]
  GI50: 1.67 µM and 2.41 µM
  TGI: 7.13 µM and > 10 µM
[13]
  GI50: 2.41 µM and 1.91 µM
  TGI: 7.18 µM and 5.36 µM
[14]
  GI50: 1.64 µM and 1.52 µM
  TGI: 3.33 µM and 3.57 µM
[15]
  GI50: 1.6 µM and 1.44 µM
  TGI: 3.23 µM and 2.97 µM
[58]
  GI50: 1.47 µM and 1.83 µM
  TGI: 3.57 µM and > 10 µM
[16]
  GI50: 3.45 µM and 9.78 µM
  TGI: 14.5 µM and > 10 µM
[17]
  GI50: 2.84 µM and 5.26 µM
  TGI: 10.5 µM and > 10 µM
[18]
  GI50: 2 µM and 2.45 µM
  TGI: 4.78 µM and > 10 µM
[19]
  GI50: 1.44 µM and 1.28 µM
  TGI: 3.01 µM and 3.56 µM
[20]
  GI50: 1.56 µM and 1.47 µM
  TGI: 3.2 µM and 2.85 µM
[21]
  GI50: 1.57 µM and 1.45 µM
  TGI: 3.15 µM and 3.32 µM
[22]
  GI50: 1.66 µM and 1.63 µM
  TGI: 4.5 µM and 7.17 µM
[23]
  GI50: 1.59 µM and 1.47 µM
  TGI: 3.07 µM and 3.08 µM
[24]
  GI50: 1.39 µM and 1.09 µM
  TGI: 4.46 µM and 8.12 µM
[25]
  GI50: 2.12 µM and 1.45 µM
  TGI: 9.15 µM and 5.73 µM
[26]
  GI50: 1.65 µM and 1.7 µM
  TGI: 4.95 µM and 6.01 µM
[27]
  GI50: 2.03 µM and 2.13 µM
  TGI: 4.77 µM and 6.09 µM
[28]
  GI50: 1.82 µM and 3.62 µM
  TGI: 8.49 µM and > 10 µM
[29]
  GI50: 1.64 µM and 1.76 µM
  TGI: 3.25 µM and 4.34 µM
[30]
  GI50: 4.06 µM and 2.95 µM
  TGI: 16.5 µM and > 10 µM
[31]
  GI50: 2.39 µM and 3.81 µM
  TGI: 8.21 µM and > 10 µM
[32]
  GI50: 1.64 µM and 1.65 µM
  TGI: 3.25 µM and 3.23 µM
[33]
  GI50: 2.14 µM and 2.3 µM
  TGI: 7.14 µM and > 10 µM
[34]
  GI50: 3.35 µM and 3.6 µM
  TGI: 13.4 µM and > 10 µM
[35]
  GI50: 1.89 µM and 3.94 µM
  TGI: 4.98 µM and > 10 µM
[36]
  GI50: 1.68 µM and 1.51 µM
  TGI: 3.47 µM and 3.11 µM
[37]
  GI50: 1.85 µM and 2.3 µM
  TGI: 4.97 µM and > 10 µM
[38]
  GI50: 1.78 µM and 1.69 µM
  TGI: 3.45 µM and 4.06 µM
[39]
  GI50: 1.75 µM and 1.85 µM
  TGI: 4.49 µM and 5.15 µM
[40]
  GI50: 1.16 µM and 1.24 µM
  TGI: 2.59 µM and 3.04 µM
[41]
  GI50: 3.36 µM and 2.03 µM
  TGI: 15.9 µM and 5.78 µM
[42]
  GI50: 1.54 µM and 1 µM
  TGI: 3.79 µM and 2.89 µM
[43]
  GI50: 1.83 µM and 1.7 µM
  TGI: 3.94 µM and 4.33 µM
[44]
  GI50: 1.9 µM and 1.7 µM
  TGI: 5.24 µM and 4.46 µM
[45]
  GI50: 1.42 µM and 1.54 µM
  TGI: 2.96 µM and 3.4 µM
[46]
  GI50: 1.61 µM and 1.81 µM
  TGI: 3.25 µM and 5.46 µM
[47]
  GI50: 0.869 µM and 1.58 µM
  TGI: 3.28 µM and 7.47 µM
[48]
  GI50: 1.55 µM and 1.61 µM
  TGI: 2.99 µM and 3.14 µM
[49]
  GI50: 1.74 µM and 1.48 µM
  TGI: 3.5 µM and 3.15 µM
[50]
  GI50: 1.51 µM and 1.44 µM
  TGI: 3.05 µM and 2.8 µM
[51]
  GI50: 1.67 µM and 1.55 µM
  TGI: 3.48 µM and 3.87 µM
[52]
  GI50: 2.36 µM and 2.16 µM
  TGI: 8.52 µM and > 10 µM
[53]
  GI50: 2.46 µM and 2.89 µM
  TGI: 8.2 µM and > 10 µM
[54]
  GI50: 1.44 µM and 1.72 µM
  TGI: 3.68 µM and 6.48 µM
[55]
  GI50: 1.76 µM
  TGI: 3.66 µM
[56]
  GI50: 1.7 µM and 2.15 µM
  TGI: 3.79 µM and > 10 µM
[57]
  GI50: 1.84 µM and 3.44 µM
  TGI: 4.25 µM and > 10 µM
